# Measured values from patent US20070238700A1, “N-PHENYL-1,1,1-TRIFLUOROMETHANESULFONAMIDE HYDRAZONE DERIVATIVE COMPOUNDS AND THEIR USAGE IN CONTROLLING PARASITES” (priority 2006, published 2007).
# Where two headings read alike, the source gives them in different places.
# How the values were obtained:
# Ctenocephalides felis = system: Ctenocephalides felis
# Description: b) Ctenocephalides felis Adulticide Assay: C. felis Single Dose Screen
# Mortality of fleas was the primary endpoint in the assay. Fleas were considered dead if they didn't move or were on their sides and unable to walk or right themselves. […] The concentration chosen (1.26 μg/cm^2) was higher than that known to kill 90% of cat fleas (LC90) using the reference compound, permethrin.
# The test species was the cat flea (Ctenocephalides felis). The strain used was obtained from external suppliers as pupae and held in the laboratory under testing conditions until the adults had emerged. Fifteen (15) fleas were used in a minimum of four replicates against a single concentration level (approximately 60 fleas). The insects were selected to be in the adult life stage, aged between 3 and 7 days post emergence.
# The compounds to be tested were supplied as solids and were prepared in acetone as described below prior to testing. Samples were stored in a refrigerator (5±1° C.) unless otherwise specified.
# During the mortality testing, the temperature was maintained at 25±1° C. Humidity was maintained at 75±5%. The base (area=159 mm^2) of a 100 mL glass Erlenmeyer (conical) flask provided the treatment surface. Flasks were pretreated with Coatasil™ glass treatment to maximise bio-availability of test compounds by preventing them from binding to glass the surface. The base of the 100 mL Erlenmeyer flask was treated with 0.5 mL of test sample in acetone and gently swirled. This volume was sufficient to cover the base of the flask. Flasks were left to dry for 24 hours before flea exposure.
# Adult cat fleas were placed into a sorting chamber, which allowed fleas to jump into the Erlenmeyer flasks. Fifteen (15) adult cat fleas were collected in each flask. The top of the flasks were then covered in Parafilm™ and small holes were made to allow gas exchange. A 0.5 mL volume of acetone as a solvent control was applied to the base of an Erlenmeyer flask and the testing proceeded in the same manner described above. Cat fleas in the treatment containers were held under testing conditions for 8, 24 and/or 48 hours. Mortality was recorded at 8, 24, 8 and 24, or 24 and 48 hours Pooled 8, 24, 8 and 24, and 24 and 48 hour mortality data were converted to percentages and are summarized by Table 21, below.
# Rhipicephalus sanguineus = assay: Rapid screening protocol for topical application on brown dog ticks (% mortality)
# Description: d) Rapid Screening Protocol for Topical Application on Brown Dog Ticks (Rhipicephalus sanguineus)
# The aim of the test was to determine the presence of significant acaricidal activity in sample compounds or formulations when applied topically on brown dog ticks. A tick was defined as dead if it gave no apparent response when touched lightly and observed for 1 minute. To assess the experimental compound for acaricidal activity, a single dose level was chosen based on known results from previous experiments with a commercially available active reference compound. Both permethrin and fipronil were employed as reference compounds. The insect species tested was the Brown Dog Tick (Rhipicephalus sanguineus). Mixed sex adult ticks were used for tests. The strain used was cultured by von Berky Veterinary Services, Woody Point, QLD, AU and supplied as unfed adult ticks (mixed sex). Ticks were maintained in controlled conditions (temp. 18°±2° C., humidity 75±5% RH).
# Test compounds (formulations or active ingredients) were stored in a refrigerator (5±1° C.) unless otherwise specified. Temperature was maintained at 25±1° C. and the humidity was ambient. The screening dose chosen was higher than that known to kill 90% of insects (LD90) using the reference compound. In the case of topical application of active compounds on adult ticks, the reference compound was fipronil and the dose chosen was 10 μg of active per tick (=10 μg of fipronil/1 μl of acetone). Ticks were each treated on the abdomen with 1 μL of a single dose level of test sample in acetone; ten ticks were treated with solvent only (acetone) in each test. Tests were replicated 4 times (total of 40 ticks treated). Ticks were held in recovery containers maintained under appropriate rearing conditions for 24 hours. Mortality resulting from the treatments was recorded at 24 hours. Pooled 24 hour mortality data were converted to percentages.
SMILES,"C. felis Mortality (%) 8 h (Ctenocephalides felis; 8 h, data from laboratory 1)","C. felis Mortality (%) 24 h (Ctenocephalides felis; 24 h, data from laboratory 1)",further results
CC(=NN(Cc1ccccc1)c1ccccc1)c1cc(Cl)ccc1NS(=O)(=O)C(F)(F)F [Compound 22],–,–,C. felis Mortality (%) 8 h (Ctenocephalides felis): 98%; C. felis Mortality (%) 24 h (Ctenocephalides felis): 100%; R. sanguineus Mortality (%) 24 h (Rhipicephalus sanguineus; data from laboratory 1): 33^A %
CC(=NN(c1ccc(Cl)cc1)C(C)C)c1cc(Cl)ccc1NS(=O)(=O)C(F)(F)F [Compound 33],–,–,C. felis Mortality (%) 24 h (Ctenocephalides felis): 86%; C. felis Mortality (%) 48 h (Ctenocephalides felis): 100%; R. sanguineus Mortality (%) 24 h (Rhipicephalus sanguineus; data from laboratory 2): 88%
O=S(=O)(Nc1ccc(Cl)cc1C1=NN(c2ccc(F)cc2)CC1)C(F)(F)F [Compound 233],9%,28%,–
CC(=Nn1cccn1)c1cc(Cl)ccc1NS(=O)(=O)C(F)(F)F [Compound 185],2%,11%,–
"CC(=NNC(=O)Nc1ccccc1)c1cc(Cl)ccc1NS(=O)(=O)C(F)(F)F [Compound 90, N-[2-[1-(4-phenyl)semicarbazono]ethyl-4-chlorophenyl]-trifluoromethanesulfonamide]",–,–,C. felis Mortality (%) 8 h (Ctenocephalides felis): 3%; C. felis Mortality (%) 24 h (Ctenocephalides felis): 18%
CC(=NNC(=O)c1ccc(Cl)cc1Cl)c1cc(Cl)ccc1NS(=O)(=O)C(F)(F)F [Compound 61],12%,45%,–
CCCN(N=C(C)c1cc(Cl)ccc1NS(=O)(=O)C(F)(F)F)c1ccccc1Cl [Compound 42],–,67%,"C. felis Mortality (%) 48 h (Ctenocephalides felis; 48 h, data from laboratory 1): 100%"
"CN(N=C(c1ccccc1)c1cc(Cl)ccc1NS(=O)(=O)C(F)(F)F)c1ccccc1 (single isomer, unassigned) [Compound 117]",12%,59%,–
CCN(N=C(C)c1cc(Cl)ccc1NS(=O)(=O)C(F)(F)F)C1CCCCC1 [Compound 216],0%,52%,–
CC(=NN(c1ccc(Cl)cc1Cl)C(C)C)c1cc(Cl)ccc1NS(=O)(=O)C(F)(F)F [Compound 32],–,41%,"C. felis Mortality (%) 48 h (Ctenocephalides felis; 48 h, data from laboratory 1): 100%"
C/C(=N\N(C)c1nccc2ccccc12)c1cc(Cl)ccc1NS(=O)(=O)C(F)(F)F [Compound 209],7%,18%,–
CC(=NNC(=O)OC(C)(C)C)c1cc(Cl)ccc1NS(=O)(=O)C(F)(F)F [Compound 86],4%,26%,–
CC(=NN(C)c1cccc(Cl)n1)c1cc(Cl)ccc1NS(=O)(=O)C(F)(F)F [Compound 197],7%,23%,–
CC(=NN(C)c1ccc(Cl)nn1)c1cc(Cl)ccc1NS(=O)(=O)C(F)(F)F [Compound 194],0%,5%,–
CC(=NN1CCCCCC1)c1cc(Cl)ccc1NS(=O)(=O)C(F)(F)F [Compound 107],2%,23%,–
CC(=NN(C)c1ccc(Cl)cc1Cl)c1cc(Cl)ccc1N(C)S(=O)(=O)C(F)(F)F [Compound 29],–,0%,"C. felis Mortality (%) 48 h (Ctenocephalides felis; 48 h, data from laboratory 1): 58%"
C/C(=N\N(C)c1cnc2ccccc2n1)c1cc(Cl)ccc1NS(=O)(=O)C(F)(F)F [Compound 210],4%,17%,–
O=S(=O)(Nc1ccc(Cl)cc1C1=NN(c2ccc(Cl)cc2)CC1)C(F)(F)F [Compound 234],14%,41%,–
CC(=NN(C)c1ccccc1C(F)(F)F)c1cc(Cl)ccc1NS(=O)(=O)C(F)(F)F [Compound 204],6%,11%,–
CC(=NN(C)c1ccc2ccccc2n1)c1cc(Cl)ccc1NS(=O)(=O)C(F)(F)F [Compound 198],2%,25%,–

SMILES,"C. felis Mortality (%) 8 h (Ctenocephalides felis; 8 h, data from laboratory 1)","C. felis Mortality (%) 24 h (Ctenocephalides felis; 24 h, data from laboratory 1)",further results
C/C(=N\N1C(=O)NC(C)(C)C1=O)c1cc(Cl)ccc1NS(=O)(=O)C(F)(F)F [Compound 187],5%,19%,–
"CN(N=C1CCCc2cccc(NS(=O)(=O)C(F)(F)F)c21)c1ccccc1 [Compound 219, N-[8-(N′-methyl-N′-phenyl)hydrazono-5,6,7,8-tetrahydro-naphthalen-1-yl]-trifluoromethanesulfonamide]",–,–,C. felis Mortality (%) 8 h (Ctenocephalides felis): 0%; C. felis Mortality (%) 24 h (Ctenocephalides felis): 2%
CCC(=NNC(=O)c1ccccc1Cl)c1cc(Cl)ccc1NS(=O)(=O)C(F)(F)F [Compound 80],17%,88%,–
"CC(=Nn1c(=O)oc2ccccc21)c1cc(Cl)ccc1NS(=O)(=O)C(F)(F)F [Compound 184, N-[4-Chloro-2-(1-(2(3H)-oxo-benzoxazol-3-yl)imino)ethylphenyl]-trifluoromethanesulfonamide]",–,–,C. felis Mortality (%) 8 h (Ctenocephalides felis): 2%; C. felis Mortality (%) 24 h (Ctenocephalides felis): 12%
CC(=NNC(=O)Nc1ccccc1Cl)c1cc(Cl)ccc1NS(=O)(=O)C(F)(F)F [Compound 91],10%,10%,–
CC(=NNC(=O)Nc1ccc(Cl)cc1)c1cc(Cl)ccc1NS(=O)(=O)C(F)(F)F [Compound 92],8%,8%,–
CC(=NNc1ccc(Cl)cc1)c1ccc(NS(=O)(=O)C(F)(F)F)cc1 [Compound 165],6%,7%,–
CC(=NN(C)C)c1cc(Cl)ccc1NS(=O)(=O)C(F)(F)F [Compound 113],3%,66%,–
"O=S(=O)(Nc1ccc(Cl)cc1-c1ccn(-c2ccccc2)n1)C(F)(F)F [Compound 230, N-[4-Chloro-2-[1-phenyl-1H-pyrazol-3-yl]-phenyl]-trifluoromethanesulfonamide]",–,–,C. felis Mortality (%) 8 h (Ctenocephalides felis; 8 h): 10%; C. felis Mortality (%) 24 h (Ctenocephalides felis; 24 h): 43%
CCN(N=C(C)c1cc(Cl)ccc1NS(=O)(=O)C(F)(F)F)c1cc(Cl)ccc1Cl [Compound 142],12%,46%,–
CCOC(=O)N(CCC(C)C)N=C(C)c1cc(Cl)ccc1NS(=O)(=O)C(F)(F)F [Compound 158],–,–,C. felis Mortality (%) 8 h (Ctenocephalides felis): 5%; C. felis Mortality (%) 24 h (Ctenocephalides felis): 28%
"O=S(=O)(Nc1ccc(Cl)cc1-c1ccnn1-c1ccc(Cl)cc1)C(F)(F)F [Compound 108, N-[2-(1-4′-chlorophenyl-1H-pyrazol-5-yl)-4-chlorophenyl]-trifluoromethanesulfonamide]",–,–,C. felis Mortality (%) 8 h (Ctenocephalides felis): 0%; C. felis Mortality (%) 24 h (Ctenocephalides felis): 64%
"COC(=O)NN=C(C)c1cc(Cl)ccc1NS(=O)(=O)C(F)(F)F [Compound 78, N-[2-[1-(methoxycarbonylhydrazono)ethyl]-4-chlorophenyl]-trifluoromethanesulfonamide]",–,–,C. felis Mortality (%) 8 h (Ctenocephalides felis; 8 h): 16%; C. felis Mortality (%) 24 h (Ctenocephalides felis; 24 h): 16%
C/C(=N\NC(=O)Nc1ccc(OC(F)(F)F)cc1)c1cc(Cl)ccc1NS(=O)(=O)C(F)(F)F [Compound 207],5%,8%,–
"CC(=NNc1ccccc1)c1cc(Cl)ccc1NS(=O)(=O)C(F)(F)F [Compound 12, N-[2-(1-phenylhydrazono)ethyl-4-chlorophenyl]-trifluoromethanesulfonamide]",–,–,C. felis Mortality (%) 8 h (Ctenocephalides felis): 20^B %
CCN(N=C(C)c1cc(Cl)ccc1NS(=O)(=O)C(F)(F)F)C1CCCC1 [Compound 212],–,–,C. felis Mortality (%) 8 h (Ctenocephalides felis): 7%; C. felis Mortality (%) 24 h (Ctenocephalides felis): 59%
CC(=Nn1c(C)n[nH]c1=O)c1cc(Cl)ccc1NS(=O)(=O)C(F)(F)F [Compound 192],3%,5%,–
CCOC(=O)NN=C(C)c1cc(Cl)ccc1NS(=O)(=O)C(F)(F)F [Compound 85],3%,12%,–
CC(=NN(C)c1ccccc1)c1cccc(Cl)c1NS(=O)(=O)C(F)(F)F [Compound 115],10%,63%,–
